# From publication PMC7855981, “Rho-Kinase 1/2 Inhibition Prevents Transforming Growth Factor-β-Induced Effects on Pulmonary Remodeling and Repair” (Frontiers in Pharmacology, 2021)
# Legend:
# ROCK2 [1] = target: T1, ROCK2 (Homo sapiens, UniProt O75116); test: ADP-Glo kinase assay with […] ATP; also KINOMEscan competition at […] ([…] vs CTRL); assay type: biochemical
# T1 construct: GST-tagged 1–552 human ROCK2
# ROCK1 [2] = target: T2, ROCK1 (Homo sapiens, UniProt Q13464); test: ADP-Glo kinase assay with […] ATP; assay type: biochemical
# T2 construct: GST-tagged 1–535 human ROCK1
# T2 sequence (Q13464 1-535): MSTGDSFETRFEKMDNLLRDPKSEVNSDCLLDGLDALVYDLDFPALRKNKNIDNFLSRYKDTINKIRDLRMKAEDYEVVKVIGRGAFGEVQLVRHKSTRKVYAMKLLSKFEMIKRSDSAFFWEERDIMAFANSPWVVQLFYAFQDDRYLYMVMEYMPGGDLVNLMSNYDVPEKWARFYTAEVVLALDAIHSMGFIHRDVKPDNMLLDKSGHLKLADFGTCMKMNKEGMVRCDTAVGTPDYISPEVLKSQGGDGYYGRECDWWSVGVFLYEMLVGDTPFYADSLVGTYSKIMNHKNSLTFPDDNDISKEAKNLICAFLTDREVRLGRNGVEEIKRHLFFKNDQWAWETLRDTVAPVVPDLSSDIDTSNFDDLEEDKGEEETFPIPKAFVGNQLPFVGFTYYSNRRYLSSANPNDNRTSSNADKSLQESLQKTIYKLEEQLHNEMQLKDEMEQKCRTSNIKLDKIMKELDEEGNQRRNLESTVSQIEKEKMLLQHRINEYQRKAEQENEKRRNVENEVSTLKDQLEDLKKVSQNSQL
# ROCK1 [3] = target: T2, ROCK1; test: ADP-Glo kinase assay with […] ATP; also KINOMEscan competition at […] ([…] CTRL); assay type: biochemical
# ROCK2 [4] = target: T1, ROCK2; test: as above; assay type: biochemical
# VRK2 = VRK2 (Homo sapiens, UniProt Q86Y07); test: KINOMEscan competition binding, single concentration […] ([…] of control); settings: read-out: % CTRL at 100 nM
# VRK2, sequence (Q86Y07 whole entry): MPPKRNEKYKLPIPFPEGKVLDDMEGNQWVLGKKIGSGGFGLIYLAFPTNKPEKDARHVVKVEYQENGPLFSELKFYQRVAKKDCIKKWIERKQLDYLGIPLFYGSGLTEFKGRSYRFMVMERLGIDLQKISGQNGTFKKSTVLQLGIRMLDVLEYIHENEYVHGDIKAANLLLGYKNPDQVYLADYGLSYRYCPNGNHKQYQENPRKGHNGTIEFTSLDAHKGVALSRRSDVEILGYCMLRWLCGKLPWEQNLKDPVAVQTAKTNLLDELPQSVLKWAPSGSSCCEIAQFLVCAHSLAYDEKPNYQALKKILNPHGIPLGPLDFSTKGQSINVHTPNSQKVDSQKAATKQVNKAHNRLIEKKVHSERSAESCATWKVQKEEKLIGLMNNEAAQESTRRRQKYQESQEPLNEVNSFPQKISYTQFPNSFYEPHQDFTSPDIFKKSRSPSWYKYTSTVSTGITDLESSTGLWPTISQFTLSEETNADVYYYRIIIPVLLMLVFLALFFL
# T1 sequence (O75116 1-552): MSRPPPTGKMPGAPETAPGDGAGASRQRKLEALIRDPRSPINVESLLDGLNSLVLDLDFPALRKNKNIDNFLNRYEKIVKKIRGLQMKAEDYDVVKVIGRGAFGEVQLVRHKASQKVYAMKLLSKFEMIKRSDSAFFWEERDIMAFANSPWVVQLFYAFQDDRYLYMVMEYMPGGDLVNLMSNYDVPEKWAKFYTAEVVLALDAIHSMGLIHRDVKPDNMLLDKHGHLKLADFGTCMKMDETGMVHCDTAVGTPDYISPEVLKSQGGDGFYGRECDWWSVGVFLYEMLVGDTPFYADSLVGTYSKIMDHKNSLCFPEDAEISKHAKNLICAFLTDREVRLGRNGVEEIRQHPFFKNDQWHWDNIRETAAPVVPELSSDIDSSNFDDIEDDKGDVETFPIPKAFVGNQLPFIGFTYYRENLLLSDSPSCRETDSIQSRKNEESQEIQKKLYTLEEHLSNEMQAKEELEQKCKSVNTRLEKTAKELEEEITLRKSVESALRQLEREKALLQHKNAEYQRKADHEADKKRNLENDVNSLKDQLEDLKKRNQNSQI
IC50 (ROCK2 [1]) [nM],IC50 (ROCK1 [2]) [nM],IC50 (ROCK1 [3]) [nM],IC50 (ROCK2 [4]) [nM],remaining binding at 0.1 µM (VRK2) [%],Compound
6.1 ± 1.4,341 ± 38,,,,"Cn1cc(C(=O)Nc2cccc(-c3nnc(Nc4ccc5[nH]ncc5c4Cl)s3)c2)cn1 [A11, N-(3-(5-((4-chloro-1H-indazol-5-yl)amino)-1,3,4-thiadiazol-2-yl)phenyl)-1-methyl-1H-pyrazole-4-carboxamide]"
,,2.9 ± 0.5,4 ± 0.6,9.3,"CCCN[C@H]1CCc2nc(NC(=O)c3cccc([C@@H](C)NC(=O)c4ccc(OC)c(OC)c4)c3)sc2C1 [compound 31, 3,4-dimethoxy-N-((R)-1-(3 - (((S) - 6 - (propylamino) - 4,5,6, 7 tetrahydrobenzo [d]thiazol-2-yl)carbamoyl)phenyl)ethyl) benzamide]"
